Series [1] can be described thus: Drug potency, peptide loading and size of coacervated particles. As to conditions: formulation 1 particles (coacervation), blend. The format is physicochemical.
The test system of series [2] is P100 membrane fractions derived from Caco-2 cells. The experiment in a line: Dansylated peptide ELISA on P100: PAX2 and HAX42 peptides relative binding. The method, then:
The peptides and proteins were analyzed by a dansylated peptide ELISA method in which 96 well plates were coated overnight at 4° C. with 100 μl/well coating protein (normally 100 μg/ml P100 membrane fraction) in 0.05M carbonate buffer pH9.6. Nonspecific binding was blocked using 200 μl/well, 2% Marvel/PBS for 2 hours at 37° C. prior to incubation with dansylated peptides. The plates were washed three times with PBS/0.05% Tween 20 and after each subsequent incubation step. […] A buffer blank control was included to ensure that background binding to plastic was not due to the antibodies used in the assay system. […] The plates were then incubated with an anti-mouse λ-HRP conjugated antibody (Southern Biotech 1060-05) at a 1:10,000 dilution in blocking solution, 100 μl/well for 1 hour at room temperature. Plates were developed using 75 μl/well Bionostics TMB substrate and incubated for approximately 10 minutes. The developing reaction was stopped using Bionostics Red Stop solution (25 μl/well), and the optical density of the plates was read at 650 nm.

The mark [3] stands for this setting: PAX2 peptides, ratio to ZElan021 (HAX42 = 1.00), first 50 μg/ml column.
Where [4] appears, read: PAX2 peptides, ratio to ZElan021 (HAX42 = 1.00), first 20 μg/ml column.
Setting [5] is: PAX2 peptides, ratio to ZElan021 (HAX42 = 1.00), second 20 μg/ml column.
Setting [6] is: PAX2 peptides, ratio to ZElan021 (HAX42 = 1.00), second 50 μg/ml column.
[7] abbreviates: HAX42 peptides, ratio to ZElan021 (arbitrary 1.00).
Setting [8] is: HAX42 peptides, ratio to ZElan021 (arbitrary 1.00), first 50 μg/ml column.
The mark [9] stands for this setting: HAX42 peptides, ratio to ZElan021 (arbitrary 1.00), second 50 μg/ml column.

Peptide text beside a SMILES is read from it. * marks the point of attachment. Dansyl = CN(C)c1cccc2c(S(=O)(=O)*)cccc12

For “SPCGGSWGRFMQGGLFGGRTDGCGAHRNRTSASLEPPSSDY [SNi34]”, the “Insulin (insulin potency)” value in series [1] (coated with the named peptide) is listed as 61.5 mg/g. In addition, the “Peptide (level of peptide coated onto the particles)” value in series [1] (measured by fluorescence) worked out at 4.03 µL/mg.
In the case of `CC(C)C[C@H](NC(=O)[C@H](CCCNC(=N)N)NC(=O)[C@H](CCCNC(=N)N)NC(=O)[C@H](CC(N)=O)NC(=O)[C@H](Cc1c[nH]cn1)NC(=O)[C@H](CO)NC(=O)[C@H](CO)NC(=O)[C@H](Cc1c[nH]cn1)NC(=O)[C@H](CCCCN)NC(=O)[C@H](C)NC(=O)[C@H](CC(N)=O)NC(=O)[C@@H](NC(=O)[C@@H](N)CCCCNS(=O)(=O)c1cccc2c(N(C)C)cccc12)[C@@H](C)O)C(=O)N[C@@H](CCCNC(=N)N)C(=O)N[C@H](C(=O)N[C@@H](CCCNC(=N)N)C(=O)N[C@@H](CO)C(=O)N[C@@H](CCCNC(=N)N)C(=O)N1CCC[C@H]1C(=O)N[C@@H](CC(N)=O)C(N)=O)[C@@H](C)O` [ZElan032] (H-K(Dansyl)TNAKHSSHNRRLRTRSRPN-NH2), in series [2] (setting [3]), the “Binding value at 50 μg/ml” value was 0.95.
Take `CC(C)C[C@H](NC(=O)[C@H](CCCNC(=N)N)NC(=O)[C@H](CCCNC(=N)N)NC(=O)[C@H](CC(N)=O)NC(=O)[C@H](Cc1c[nH]cn1)NC(=O)[C@H](CO)NC(=O)[C@H](CO)NC(=O)[C@@H](N)CCCCNS(=O)(=O)c1cccc2c(N(C)C)cccc12)C(=O)N[C@@H](CCCNC(=N)N)C(=O)N[C@H](C(=O)N[C@@H](CCCNC(=N)N)C(N)=O)[C@@H](C)O` [ZElan035] (H-K(Dansyl)SSHNRRLRTR-NH2): the “Binding value at 20 μg/ml” value came out at 0.12 in series [2] (setting [4]) and 0.43 in series [2] (setting [5]). The “Binding value at 50 μg/ml” value is reported as 0.81 in series [2] (setting [3]) and 0.77 in series [2] (setting [6]).
On to `CN(C)c1cccc2c(S(=O)(=O)NCCCC[C@H](N)C(=O)N[C@@H](CC(N)=O)C(=O)N[C@@H](CCCNC(=N)N)C(=O)N[C@@H](CCCNC(=N)N)C(=O)N[C@@H](CCCNC(=N)N)C(=O)N3CCC[C@H]3C(=O)N[C@@H](CO)C(N)=O)cccc12` [ZElan067, H2N-K(dns)NRRRPS-CONH2] (H-K(Dansyl)NRRRPS-NH2), for which, in series [2] (setting [7]), the “Binding value at 20 μg/ml” value was 0.08. Moreover, the “Binding value at 50 μg/ml” value in series [2] (setting [8]) is 0.52; in series [2] (setting [9]), 0.40.
The like results for `CC(C)C[C@H](NC(=O)[C@H](C)NC(=O)[C@H](Cc1c[nH]cn1)NC(=O)[C@H](CC(=O)O)NC(=O)[C@H](CO)NC(=O)[C@@H](N)CCCCNS(=O)(=O)c1cccc2c(N(C)C)cccc12)C(=O)NCC(=O)N[C@H](C(=O)N[C@@H](CC(N)=O)C(=O)N[C@@H](CC(C)C)C(=O)N[C@@H](CCCNC(=N)N)C(=O)N[C@@H](CO)C(=O)N[C@@H](CC(=O)O)C(=O)N[C@@H](CC(N)=O)C(=O)N[C@@H](C)C(=O)N[C@@H](CCCCN)C(=O)N[C@@H](CCC(=O)O)C(=O)N1CCC[C@H]1C(=O)NCC(N)=O)[C@@H](C)O` [ZElan062] (H-K(Dansyl)SDHALGTNLRSDNAKEPG-NH2) were, in that order, 0.11, 0.42 and 0.34.
Take `CC(C)C[C@H](NC(=O)[C@H](CC(N)=O)NC(=O)[C@@H](N)CCCCNS(=O)(=O)c1cccc2c(N(C)C)cccc12)C(=O)N[C@@H](CCCNC(=N)N)C(=O)N[C@@H](CO)C(=O)N[C@@H](CC(=O)O)C(=O)N[C@@H](CC(N)=O)C(=O)N[C@@H](C)C(=O)N[C@@H](CCCCN)C(=O)N[C@@H](CCC(=O)O)C(=O)N1CCC[C@H]1C(=O)NCC(=O)N[C@@H](CC(=O)O)C(=O)N[C@@H](Cc1ccc(O)cc1)C(=O)N[C@@H](CC(N)=O)C(=O)N[C@@H](CS)C(=O)N[C@@H](CS)C(=O)NCC(=O)N[C@@H](CC(N)=O)C(=O)NCC(=O)N[C@@H](CC(N)=O)C(=O)N[C@@H](CO)C(=O)N[C@H](C(=O)NCC(=O)N[C@@H](CCCNC(=N)N)C(=O)N[C@@H](CCCCN)C(=O)N[C@H](C(=O)N[C@@H](Cc1ccccc1)C(=O)N[C@@H](CC(N)=O)C(=O)N[C@@H](CCCNC(=N)N)C(N)=O)C(C)C)[C@@H](C)O` [ZElan071] (H-K(Dansyl)NLRSDNAKEPGDYNCCGNGNSTGRKVFNR-NH2): the entries for the “Binding value at 50 μg/ml” value in series [2] (setting [8]) and in series [2] (setting [9]) were 0.89 and 0.75, respectively.
For “H-K(Dansyl)STPPSREAYSRPYSVDSDSDTNAKHSSHNRRLRTRSRPNG-NH2 [ZElan018]”, in series [2] (setting [4]), the “Binding value at 20 μg/ml” value is −0.33. Further, in series [2] (setting [3]), the “Binding value at 50 μg/ml” value stood at 0.95.
Regarding `CC(C)C[C@H](NC(=O)[C@H](CCCNC(=N)N)NC(=O)[C@H](CCCNC(=N)N)NC(=O)[C@@H](N)CCCCNS(=O)(=O)c1cccc2c(N(C)C)cccc12)C(=O)N[C@@H](CCCNC(=N)N)C(=O)N[C@H](C(=O)N[C@@H](CCCNC(=N)N)C(=O)N[C@@H](CO)C(=O)N[C@@H](CCCNC(=N)N)C(=O)N1CCC[C@H]1C(=O)N[C@@H](CC(N)=O)C(N)=O)[C@@H](C)O` [ZElan056] (H-K(Dansyl)RRLRTRSRPN-NH2), the “Binding value at 20 μg/ml” value is recorded as 0.00 in series [2] (setting [4]) and 0.16 in series [2] (setting [5]). The “Binding value at 50 μg/ml” value in series [2] (setting [3]) and in series [2] (setting [6]) was 0.21 each time.
Turning to `CC(C)C[C@H](NC(=O)[C@H](C)NC(=O)[C@H](Cc1c[nH]cn1)NC(=O)[C@H](CC(=O)O)NC(=O)[C@H](CO)NC(=O)[C@@H](N)CCCCNS(=O)(=O)c1cccc2c(N(C)C)cccc12)C(=O)NCC(=O)N[C@H](C(=O)N[C@@H](CC(N)=O)C(=O)N[C@@H](CC(C)C)C(=O)N[C@@H](CCCNC(=N)N)C(=O)N[C@@H](CO)C(=O)N[C@@H](CC(=O)O)C(=O)N[C@@H](CC(N)=O)C(=O)N[C@@H](C)C(=O)N[C@@H](CCCCN)C(=O)N[C@@H](CCC(=O)O)C(=O)N1CCC[C@H]1C(=O)NCC(=O)N[C@@H](CC(=O)O)C(=O)N[C@@H](Cc1ccc(O)cc1)C(=O)N[C@@H](CC(N)=O)C(=O)N[C@@H](CS)C(=O)N[C@@H](CS)C(=O)NCC(=O)N[C@@H](CC(N)=O)C(=O)NCC(=O)N[C@@H](CC(N)=O)C(=O)N[C@@H](CO)C(=O)N[C@H](C(N)=O)[C@@H](C)O)[C@@H](C)O` [ZElan070] (H-K(Dansyl)SDHALGTNLRSDNAKEPGDYNCCGNGNST-NH2), the “Binding value at 20 μg/ml” value in series [2] (setting [7]) is 0.59. For the same compound, the “Binding value at 50 μg/ml” value in series [2] (setting [8]) was determined as 0.97; in series [2] (setting [9]), 0.39.
Turning to “H-K(Dansyl)GRNHDVVSSNTHKSYRSPRSASYPRLSNDRTDRTEPAPSS-NH2 [ZElan083]”, the “Binding value at 20 μg/ml” value in series [2] (setting [4]) was determined as 0.43; in series [2] (setting [5]), 0.63. Moreover, in series [2] (setting [6]), the “Binding value at 50 μg/ml” value turned out to be 0.88.
